Results from patent US10428030B2, “Heterocycle derivatives and their use for the treatment of CNS disorders” (Trillium Therapeutics Inc., priority 2015, dated 2019).

Tests used:
[1] = test system: Male Sprague-Dawley rats; assay: Maximal Electroshock Seizure (MES) rat model; assay type: in vivo; settings: po, 4 hours
Protocol: Male, Sprague-Dawley rats and CD-1 mice were used for all studies. All animals were allowed ad-lib access to food and water except during experiment. Animals were housed within an animal vivarium maintained under a 12 h light:dark cycle (lights on: 07:00 h), and all experiments were conducted in the animals light phase. For all experiments, animals were habituated to the vivarium for a minimum of 72 h before experimentation. The experimental procedures used in the present investigation were conducted under the Association for Assessment and Accreditation of Laboratory Animal Care (AAALAC) and the Canadian Council on Animal Care (CCAC) guidelines.
All compounds were sonicated in 5% Tween 80® in saline or methylcellulose 0.5% (wgt/vol), using MC and sterile water and injected in a dose volume of 5 ml/kg or 10 ml/kg (rat), and 10 ml/kg (mouse). Drugs were administered by either the oral, intraperitoneal or intravenous route.
Male Sprague-Dawley rats of body weight 80-100 g were used for these studies. Each experiment was conducted over 3 consecutive days. On day 1 and 2, each rat received a single electrical stimulus (150 mA, 0.2 s duration, 60 Hz) via corneal electrodes moistened with saline (Shock stimulator type 221: Harvard apparatus). […] Typically this reflected approximately 70-90% of the initial group.
On the test day following a defined drug pretreatment period, rats received a maximal electroshock (150 mA, 0.2 s duration, 60 Hz) via corneal electrodes. Protection was defined as absence of a full tonic seizure within 10 s of stimulus delivery. Twenty minutes before the MES procedure, the animals were tested on a fixed speed rotorod (best score from 3 trials at 8 r.p.m, trial duration=60 s) to give an early assessment of drug effect on gross motor function.

[2] = test system: hippocampal kindled rat; assay: Hippocampal kindled rat model (focal seizures); assay type: in vivo; settings: <300 mg/kg i.p., vs vehicle controls
Source text: Hippocampal Kindled Rat Test is designed to quantify the anticonvulsant effects of a test compound in the kindled rat model. Rats treated by i.p. injection.
The Kindled Rat is a model of temporal lobe epilepsy, which is the most common and drug-resistant type of adult focal epilepsy (Morimoto et al., 2004). […] This acquired hyper-responsiveness is called kindling and results not only in increased seizure responses but also in an elongation of the after-discharge duration seen on an EEC recording. Electrodes are implanted into the hippocampus of anesthetized rats, which are then allowed to recover for one week. […] At each time point, the behavioral seizure score (BSS) and after-discharge duration (ADD) is recorded. The BSS's are scored according to the following criteria (Racine, Electroencephalogr Clin Neurophysiol 1972, 32:281-94): Stage 1—mouth and facial clonus; Stage 2—stage 1 plus head nodding; Stage 3—stage 2 plus forelimb clonus; Stage 4—stage 3 plus rearing; and Stage 5—stage 4 plus repeated rearing and falling.
The afterdischarge threshold (ADT) can also be measured in the kindled rat. […] The individual rat ADT is then determined at varying times (i.e., 0.25, 1, 2, and 4 hr) after drug administration.

[3] = test system: Male, Sprague-Dawley rats; assay: Spinal Nerve Injury (SNI) model (neuropathic pain); assay type: in vivo, rat; settings: 60 mg/kg i.p.
Source text: The SNI model of neuropathic pain was developed in rats using the procedure described by Decostered and Woolf, Pain 2000, 87: 149-158. Under isoflurane anesthesia, the skin on the lateral surface of the thigh was incised and a section was made directly through the biceps femoris muscle exposing the sciatic nerve and its three terminal branches: the sural, common peroneal and tibial nerves. The common peroneal and the tibial nerves were tight-ligated with 6-0 suture and sectioned distal to the ligation, removing 2-4 mm of the distal nerve stump. Extreme care was taken to avoid any contact with or stretching of the intact sural nerve. Following surgery, hemostasis was confirmed and the muscles were sutured in layers using 4-0 suture and the skin was closed with 4-0 suture and metal clips.
Male, Sprague-Dawley rats were used. Testing of compounds was done 21 days post-operatively. After initial basal readings were taken, the test compound or vehicle was administered. The readings were taken again 30, 60 and 180 min after the compound/vehicle administration. Both the control (uninjured) and the SNI paw were tested. The presence of mechanical allodynia was assessed using the Dynamic Plantar Aesthesiometer (Ugo Basile, Italy) which is a modified version of the Von Frey Hair test. […] A single reading was taken per timepoint. […]
Cold allodynia was assessed by using the acetone test. […]

Question: How did the ED50 [1] turn out when `O=C1COc2cc(OCc3ccc(OC(F)F)cc3)ccc2N1` [Compound I(B)] was run?
Answer: The ED50 was 20.1 ± 0.7 mg/kg.

Question: What about the “suppression of fully kindled (stage 5) seizures” value [2] of the same molecule?
Answer: The value was “dose related suppression of fully kindled (stage 5) seizures”.

Question: And the “mechanical allodynia in the denervated paw (Von Frey test)” value [3]?
Answer: The value was “effective at reducing the mechanical allodynia”.

Question: And the cold allodynia ([3]; neuropathic rats)?
Answer: The cold allodynia was “significantly reduced”.
